Measurements: paper PMC3467217, “A Potent Class of GPR40 Full Agonists Engages the EnteroInsular Axis to Promote Glucose Control in Rodents” (PLoS ONE, 2012)

Experiments:
[1] = test system: islets isolated from GPR40 knockout mice; test: GSIS assay with islets from GPR40 knock-out mice; assay type: cell-based, mouse
Experimental: (§1) Mouse islets were isolated and tested for stimulation of GSIS as described. Human islets were purchased from Prodo labs or were obtained from the National Institutes of Health and Juvenile Diabetes Research Foundation supported Islet Cell Resource Consortium (http://icr.coh.org). Islet inositol phosphate assays were performed on islets cells that had been dispersed with trypsin. 10,000 islet cells were plated/well of a 96-well plate and were loaded with ^3H-myo-inositol (0.5 µCi/well) in RPMI overnight prior to treatment. The next day, response to different stimuli was tested in HBSS containing 10 mM LiCl and 0.1% HSA (w/v) for 1 hour at 37°C. Accumulated ^3H-inositol phosphate was measured after capture to SPA beads. Islet perifusion experiments were performed on mouse islets loaded into a Brandel Suprafusion system. Twenty islets were size-matched and loaded per perifusion chamber. Islets were perifused in KRBH containing, sequentially, 3 mM glucose, then 3 mM glucose containing 10 µM drug, 16.7 mM glucose containing 10 µM drug and finally returned to 3 mM glucose containing 10 µM drug. Insulin was measured using an insulin ELISA kit (Alpco). Fetal rat intestinal cells were isolated from e19-day old fetuses of pregnant Sprague-Dawley rats. Briefly, fetal intestines were isolated and digested in HBSS buffer containing 0.5 mg/ml collagenase (Sigma), 0.5 mg/ml of hyaluronidase (Sigma) and 0.05 mg/ml of deoxyribonuclease I (Roche) for 30 minutes at 37°C. The digestion was quenched using HBSS containing 15% FBS. Fetal rat intestinal cells were washed and cultured overnight in DMEM containing 5% FBS in 96-well plates. To test for secretion of GLP-1 and GIP in response to treatments, we incubated cells for 1 hour with treatments in KRBH buffer containing 0.05% BSA (w/v). GLP-1 and GIP1 secreted into the media was measured using ELISA kits specific for GLP-1 (Linco) or GIP (Millipore).

[2] = rat, mouse, beagle dog and cynomolgus monkey; cited from earlier work
[3] = test system: mouse islets; test: Mouse islet perifusion assay; assay type: cell-based; settings: 10 µM compound
Experimental: as §1

[4] = test system: C57/Bl6 mice; test: IPGTT in C57BL/6j mice with or without GLP-1R antagonist Ex(9-39)NH2; assay type: in vivo, mouse
Experimental: An intraperitoneal rather than oral glucose challenge was performed in order to bypass the incretin effect of an oral glucose administration.
IPGTT experiments with Ex(9–39)NH2 (Bachem) were performed with male C57BL/6j (n = 6–7/group) at 26-weeks of age. Ex(9–39)NH2 was formulated in PBS containing 0.1%BSA and dosed ip at 300 µg/kg.
(§2) For all glucose tolerance tests, glucose and insulin measurements were taken from tail vein samples at various time-points. Blood glucose values were measured on an Accu-Chek glucometer (Roche Diagnostics), while insulin levels were determined using an ELISA (Alpco).

[5] = test system: human islet cells; test: Inositol phosphate assay with dispersed human islet cells; assay type: cell-based
Experimental: as §1, with “Briefly, fetal intestines were isolated and digested in HBSS buffer containing 0.5 mg/ml collagenase (Sigma), 0.5 mg/ml of hyaluronidase (Sigma) and 0.05 mg/ml of deoxyribonuclease I (Roche) for 30 minutes at 37°C. The digestion was quenched using HBSS containing 15% FBS. Fetal rat intestinal cells were washed and cultured overnight in DMEM containing 5% FBS in 96-well plates. To test for secretion of GLP-1 and GIP in response to treatments, we incubated cells for 1 hour with treatments in KRBH buffer containing 0.05% BSA (w/v).” left out

[6] = target: PPAR alpha (Homo sapiens, UniProt Q07869); test: PPAR-alpha luciferase reporter assay; assay type: cell-based; settings: concentrations up to 10 µM
[7] = target: T1, GPR41 (FFAR3) (Homo sapiens, UniProt O14843); test: GPR41 aequorin assay; assay type: cell-based; settings: up to 10 µM
T1 construct: expressed in transfected cells
Source text: (A) GPR41 (FFAR3) aequorin assay. GPR41 was force coupled to the calcium signaling pathway by co-transfecting the cells with Gqmyri5. (B) GPR43 (FFAR2) aequorin assay. The short chain fatty acid propionate acts as a natural agonist ligand for GPR41 and GPR43. (C) GPR120 aequorin assay. The unsaturated fatty acids α-LNN and DHA act as natural agonist ligands for GPR120. (D) PPAR-gamma luciferase assay using the thiazolidinedione rosiglitazone as a positive control. […] (TIF) Click here for additional data file.

[8] = test system: NONcNZO10/LtJ mice; test: OGTT in NONcNZO10/LtJ type 2 diabetic mice; assay type: in vivo, mouse
Experimental: NONcNZO10/LtJ mice retain an intact leptin pathway but contain polygenic defects contributing to moderate and mature onset obesity and diabetes, [31].
(§3) All procedures on animals were approved by the Amgen San Francisco Institutional Animal Care and Use Committee (approved protocols #11–04 and #2007–00106). The Amgen San Francisco vivarium is an AAALAC accredited facility. Animals were housed under a 12-h light, 12-h dark cycle (lights-on 0600 h and lights-off 1800 h) and were allowed ad libidum access to chow and water. The HF/STZ mice were established as previously described. Briefly, C57BL/6j mice (Jackson labs) at 4 weeks of age were fed a high-fat diet (BioServ S1850, 35% fat) for 3-weeks and then injected with 95 mg/kg streptozotocin (Sigma) ip to induce beta cell dysfunction. The animals continued on the same high fat diet for 3–6 additional weeks. Animals were then randomized into treatment groups based on fasting blood glucose and insulin measures. NONcNZO10/LtJ (RCS10) male mice (Jackson labs) were used at 12-weeks of age and randomized for treatment based on fasting glucose levels. For OGTT experiments, drugs were formulated in 1% HPMC, 10% HPbCD, 1% Tween-80 and dosed via oral gavage. Glucose was administered at 2 g/kg 1-hour post drug dose by oral gavage.
as §2

[9] = test system: mouse islets; test: GSIS assay in mouse islets; assay type: cell-based; settings: 16.7 mM glucose
Experimental: as §1

[10] = target: T2, GPR40 (Homo sapiens, UniProt O14842); test: Competition binding with 3H-AM-1638 on A9_GPR40 membranes; settings: unlabelled competitor
T2 construct: expressed in transfected cells; host or cells: CHO cell line stably expressing GPR40 and aequorin
Experimental: (§4) GPR40 aequorin, plasmid titration, and inositol phosphate assays were performed as described. For aequorin assays, in addition to transient transfection of GPR40 into CHO cells, a CHO cell line stably expressing both GPR40 and aequorin was generated. GLUTag cells were obtained under a license from Dr. Daniel Drucker, University of Toronto. Competition binding experiments were performed using membranes prepared from A9_GPR40 cells. […] Competition binding assays were carried out in 20 mM Hepes pH 7.5, 5 mM MgCl2, 100 mM NaCl and 0.1% (w/v) free fatty acid BSA and bound radioligand was collected on 96-well GF/C filter plates.

[11] = test system: GLUTag cells; test: Inositol phosphate accumulation assay in GLUTag enteroendocrine L-cell line; assay type: cell-based, mouse
Experimental: Increased GLP-1 and GIP would be expected to have additional benefits in type 2 diabetics. […] We tested for potential effects on incretin secretion in vitro by using cells isolated from fetal rat intestines.
as §4

[12] = test system: HF/STZ mice; test: OGTT in high-fat fed, streptozotocin-treated (HF/STZ) type 2 diabetic mice; assay type: in vivo, mouse; settings: OGTT; for Glucose AUC improvement: 1 hour before glucose
Experimental: as §3, §2

T1 sequence (O14843 whole entry, species assumed): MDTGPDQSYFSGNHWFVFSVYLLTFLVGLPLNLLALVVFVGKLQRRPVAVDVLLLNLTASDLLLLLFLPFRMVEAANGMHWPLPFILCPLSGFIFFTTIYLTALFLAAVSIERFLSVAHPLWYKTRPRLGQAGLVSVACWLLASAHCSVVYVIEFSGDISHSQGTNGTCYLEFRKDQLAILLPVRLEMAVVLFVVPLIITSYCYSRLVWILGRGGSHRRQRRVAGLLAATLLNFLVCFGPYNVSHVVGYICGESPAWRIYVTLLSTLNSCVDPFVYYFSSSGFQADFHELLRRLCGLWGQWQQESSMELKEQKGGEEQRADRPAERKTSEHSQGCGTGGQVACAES
Sequence of PPAR alpha (Q07869 whole entry, species assumed): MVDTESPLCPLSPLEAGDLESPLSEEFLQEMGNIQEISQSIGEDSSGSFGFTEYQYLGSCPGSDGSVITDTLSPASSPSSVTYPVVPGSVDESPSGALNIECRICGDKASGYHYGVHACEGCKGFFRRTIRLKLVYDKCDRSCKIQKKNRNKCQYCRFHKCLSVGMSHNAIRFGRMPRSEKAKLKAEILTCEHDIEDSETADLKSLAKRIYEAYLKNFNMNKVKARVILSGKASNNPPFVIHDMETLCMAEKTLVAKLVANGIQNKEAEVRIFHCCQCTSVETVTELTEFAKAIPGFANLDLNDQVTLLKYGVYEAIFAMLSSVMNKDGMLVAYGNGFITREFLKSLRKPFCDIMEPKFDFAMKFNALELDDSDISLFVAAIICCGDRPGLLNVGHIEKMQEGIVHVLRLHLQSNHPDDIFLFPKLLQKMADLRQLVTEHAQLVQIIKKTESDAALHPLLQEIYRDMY
T2 sequence (O14842 whole entry): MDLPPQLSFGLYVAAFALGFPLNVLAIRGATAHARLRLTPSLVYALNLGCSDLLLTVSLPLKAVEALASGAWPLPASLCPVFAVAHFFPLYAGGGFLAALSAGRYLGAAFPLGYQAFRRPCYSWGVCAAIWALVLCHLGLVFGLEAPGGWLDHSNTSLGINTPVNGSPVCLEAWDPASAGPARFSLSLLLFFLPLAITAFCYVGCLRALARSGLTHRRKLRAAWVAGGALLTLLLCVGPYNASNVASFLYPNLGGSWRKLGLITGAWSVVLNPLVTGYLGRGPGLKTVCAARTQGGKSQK

activation of PPAR alpha [6]: did not activate | activation of GPR41 (FFAR3) [7]: did not activate | EC50 ([9]; read-out: EC50 for potentiation of insulin secretion): 0.99 ± 0.15 µM | displacement of 3H-AM-1638 [10]: displaced ^3H-AM-1638
Compound: COc1ccc(F)c(-c2ccc(COc3cccc([C@@H](CC(=O)O)C4CC4)c3)cc2C2=CCCC2(C)C)c1 [AM-1638]
GSIS response of GPR40 knockout islets [1]: did not respond | pharmacokinetic properties [2]: suitable for oral dosing | insulin stimulation compared to vehicle control ([3]; 3 mM glucose): neither AMG 837 nor AM-1638 stimulated insulin | insulin secretion ([3]; 16.7 mM glucose): increased both first and second phase insulin secretion | Glucose AUC reduction ([4]; AM-1638 60 mg/kg alone): ~53% | Glucose AUC reduction ([4]; AM-1638 60 mg/kg in the presence of exendin(9-39)NH2 300 µg/kg ip): ~25% | IP production efficacy, fold greater than AMG 837 [5]: 8–10 × | GIP levels vs vehicle ([8]; 60 mg/kg, 15 minutes after glucose challenge): did not reach statistical significance | insulin and GLP-1 levels 15 minutes after glucose challenge ([8]; 60 mg/kg, vs vehicle and baseline): significantly increased | Glucose AUC change as printed in figure 5B ([8]; OGTT, 60mg/kg): -26% | Glucose AUC reduction compared to vehicle ([8]; OGTT, single 60 mg/kg oral dose): 26% | glucose excursions during OGTT ([8]; single 60 mg/kg oral dose): almost complete suppression | increase of insulin secretion, fold from that of AMG 837 [9]: 3–4 fold | inositol phosphate accumulation, fold increase compared to AMG 837 [11]: 3–4 fold | Glucose AUC improvement ([12]; 10 mg/kg oral): 15% | Glucose AUC improvement ([12]; 30 mg/kg oral): 23% | Glucose AUC improvement ([12]; 60 mg/kg oral): 35% | Glucose AUC improvement ([12]; 100 mg/kg oral): 48% | insulin secretion, fold greater than AMG 837 ([12]; higher doses): 1.5–2.2 fold
